In US9346769B2, “Tetrazolones as inhibitors of fatty acid synthase” (Infinity Pharmaceuticals, Inc., priority 2010, dated 2016):

molecular target: T1, human FASN (Homo sapiens, UniProt P49327); test: FASN Scintillation Proximity Flashplate Assay; format: biochemical; details: human FASN purified from SKBR3 cells; unstarred symbols
T1 construct: was purified from SKBR3 cells using procedures modified from those in Jayakumar et al; endogenous in cells; host or cells: SKBR3 human breast cancer cells (ATCC); Endogenous enzyme purified by ammonium sulfate precipitation and a mono Q column
T1 sequence (P49327 whole entry): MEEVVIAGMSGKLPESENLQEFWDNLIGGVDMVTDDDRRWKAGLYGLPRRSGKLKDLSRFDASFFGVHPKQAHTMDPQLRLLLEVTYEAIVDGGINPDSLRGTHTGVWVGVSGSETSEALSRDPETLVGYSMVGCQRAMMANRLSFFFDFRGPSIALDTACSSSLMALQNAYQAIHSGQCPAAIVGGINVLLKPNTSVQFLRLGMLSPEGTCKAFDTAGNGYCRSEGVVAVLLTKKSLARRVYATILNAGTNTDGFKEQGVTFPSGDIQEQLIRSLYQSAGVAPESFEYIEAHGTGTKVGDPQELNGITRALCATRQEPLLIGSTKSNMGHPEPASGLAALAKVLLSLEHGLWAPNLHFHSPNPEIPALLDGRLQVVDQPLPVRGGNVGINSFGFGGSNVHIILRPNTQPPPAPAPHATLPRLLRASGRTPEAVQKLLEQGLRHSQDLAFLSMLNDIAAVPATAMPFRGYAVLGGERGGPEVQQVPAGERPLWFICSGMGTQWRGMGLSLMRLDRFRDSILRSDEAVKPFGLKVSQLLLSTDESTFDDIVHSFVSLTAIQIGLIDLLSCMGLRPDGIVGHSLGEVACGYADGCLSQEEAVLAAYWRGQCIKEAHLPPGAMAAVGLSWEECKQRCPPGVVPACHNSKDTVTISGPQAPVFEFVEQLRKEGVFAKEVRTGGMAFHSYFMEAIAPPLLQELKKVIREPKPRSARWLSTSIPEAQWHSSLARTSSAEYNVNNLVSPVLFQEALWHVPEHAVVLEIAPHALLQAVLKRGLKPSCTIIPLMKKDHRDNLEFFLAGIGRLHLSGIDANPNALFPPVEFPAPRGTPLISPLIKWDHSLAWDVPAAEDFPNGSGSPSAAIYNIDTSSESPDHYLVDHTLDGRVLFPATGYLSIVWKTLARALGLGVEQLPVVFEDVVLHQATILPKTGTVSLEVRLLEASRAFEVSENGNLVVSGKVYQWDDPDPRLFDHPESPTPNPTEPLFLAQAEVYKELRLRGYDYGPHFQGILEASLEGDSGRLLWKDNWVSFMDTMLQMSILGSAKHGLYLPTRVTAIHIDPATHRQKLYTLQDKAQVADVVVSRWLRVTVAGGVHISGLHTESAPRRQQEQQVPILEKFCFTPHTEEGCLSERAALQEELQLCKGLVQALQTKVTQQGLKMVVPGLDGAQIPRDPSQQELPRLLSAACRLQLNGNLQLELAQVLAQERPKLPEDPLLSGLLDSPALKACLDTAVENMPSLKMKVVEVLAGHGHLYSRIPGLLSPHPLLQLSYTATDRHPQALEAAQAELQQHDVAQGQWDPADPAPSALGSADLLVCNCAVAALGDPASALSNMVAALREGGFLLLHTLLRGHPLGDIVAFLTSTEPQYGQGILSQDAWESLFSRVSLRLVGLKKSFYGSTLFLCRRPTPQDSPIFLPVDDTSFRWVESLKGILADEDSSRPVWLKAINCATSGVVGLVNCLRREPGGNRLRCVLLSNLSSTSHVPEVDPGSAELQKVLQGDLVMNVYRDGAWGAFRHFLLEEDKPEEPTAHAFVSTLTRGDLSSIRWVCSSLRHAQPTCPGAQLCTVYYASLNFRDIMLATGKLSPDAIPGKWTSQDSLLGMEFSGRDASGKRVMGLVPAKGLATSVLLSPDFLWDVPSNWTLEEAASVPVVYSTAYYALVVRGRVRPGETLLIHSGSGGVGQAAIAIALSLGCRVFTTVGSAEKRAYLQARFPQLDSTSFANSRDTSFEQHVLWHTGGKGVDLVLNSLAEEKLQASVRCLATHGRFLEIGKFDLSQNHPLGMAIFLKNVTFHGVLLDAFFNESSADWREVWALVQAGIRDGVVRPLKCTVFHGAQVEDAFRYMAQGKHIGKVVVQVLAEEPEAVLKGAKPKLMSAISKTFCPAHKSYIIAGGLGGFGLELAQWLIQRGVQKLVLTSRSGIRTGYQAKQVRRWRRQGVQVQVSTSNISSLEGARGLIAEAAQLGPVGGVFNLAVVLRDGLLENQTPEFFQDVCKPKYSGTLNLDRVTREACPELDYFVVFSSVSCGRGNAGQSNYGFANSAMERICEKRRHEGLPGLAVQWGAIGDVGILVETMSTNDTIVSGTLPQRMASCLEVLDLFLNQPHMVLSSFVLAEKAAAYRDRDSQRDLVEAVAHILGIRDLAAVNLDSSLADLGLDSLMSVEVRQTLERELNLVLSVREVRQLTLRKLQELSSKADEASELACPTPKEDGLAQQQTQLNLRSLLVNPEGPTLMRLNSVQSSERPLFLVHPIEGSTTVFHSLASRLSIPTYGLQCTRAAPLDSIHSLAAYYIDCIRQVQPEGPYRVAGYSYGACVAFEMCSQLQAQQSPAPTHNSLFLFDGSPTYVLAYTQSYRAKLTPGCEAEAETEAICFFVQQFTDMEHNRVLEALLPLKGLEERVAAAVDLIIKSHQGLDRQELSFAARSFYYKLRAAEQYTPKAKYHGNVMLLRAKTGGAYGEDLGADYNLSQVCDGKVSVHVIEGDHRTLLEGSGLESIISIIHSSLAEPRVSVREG
Method: Human FASN protein (SEQ ID NO. 1) was purified from SKBR3 cells using procedures modified from those in Jayakumar et al. PNAS 1995, 92:8695-8699. SKBR3 cells were obtained from ATCC and grown in DMEM high glucose medium supplemented with 10% FBS, 1 μg/mL bovine pancreas insulin, 100 U/mL penicillin and 100 µg/mL streptomycin. The confluent cells were trypsinized and washed three times with PBS buffer before frozen in liquid N2 and stored at −80° C. Frozen cells were thawed on ice and resuspended in lysis buffer (25 mM Tris-HCl, pH 7.0, 15 mM NaCl, 1 mM EDTA, and 1 mM DTT) with protease inhibitors. The cells were lysed by sonication, and the cell debris was removed by centrifugation at 20,000 rpm for 30 min. To the supernatant, neutralized saturated ammonium sulfate solution was added to a final concentration of 35%. The solution was left on ice for 1 hr, and the precipitated proteins were harvested by centrifugation at 20,000 rpm for 30 min. The proteins were redissolved in lysis buffer without NaCl and loaded on a mono Q column. Bound proteins were eluted with a linear gradient of NaCl in lysis buffer. Each fraction was analyzed by SDS-PAGE and FASN NADPH consumption assay. The fractions containing FASN were pooled and concentrated to 2-3 mg/mL. Glycerol was added to 20%, and the protein was frozen in liquid N2 and stored at −80° C.
Acetyl-coenzyme A, malonyl-coenzyme A, NADPH, bovine gamma globulin, and ORLISTAT were purchased from Sigma (St. Louis, Mo.). Tris(2-carboxyethyl) phosphine hydrochloride (TCEP) was purchased from Pierce Biotechnologies (Rockford, Ill.). [^3H]-acetyl-coenzyme A was purchased from Moravek Biochemicals (Brea, CA). FlashPlate™ PLUS phospholipid 96-well scintillant coated microplates were purchased from Perkin Elmer Life and Analytical Sciences (Shelton, CT). The method of the FASN Scintillation Proximity FlashPlate assay is similar to that described in Weiss and Glickman Assay Drug Dev Technol 2003, 1:161-6. In a 96-well polypropylene microplate, a dilution series (typical concentrations 60 nM-1.0 mM) of test compounds were prepared in DMSO followed by a 20-fold dilution into FASN assay buffer (50 mM potassium phosphate, pH 7.0, 1.0 mM EDTA, 0.01% NP-40), of which 5.0 μL each was transferred to a FlashPlate® PLUS 96-well plate and mixed with 35 μL FASN assay buffer plus 0.5 mg/mL bovine gamma globulin and 1 mM TCEP. FASN protein (10 μL, 10 nM) was added per well, and the microplate was incubated at 37° C. for 30 min. 10 μL of 20 mM NADPH was added, and the reaction was initiated by addition of […] substrate mixture to final concentrations of 1 nM FASN, 100 μM acetyl-coenzyme A, 6 μCi [^3H]-acetyl-coenzyme A, 300 μM malonyl-coenzyme A, 2 mM NADPH, 0.5 mg/mL bovine gamma globulin, and 1 mM TCEP in a volume of 100 μL per well. Assay plates were incubated for 2 hr at 37° C. and the reaction was stopped with 2 μL of 2.5 mM stock solution of ORLISTAT in DMSO to ˜50 μM. The plates were read in a Wallac 1450 Microbeta Plus liquid scintillation counter (Perkin Elmer, Waltham, Mass.), and counts per minute (CPM) were collected over 2 min. Each inhibitor well CPM was compared to the maximum FASN enzyme activity (Max) CPM and the background (Min) CPM, as measured by omission of FASN enzyme in the background well. % Inhibition values were calculated, and curves were fitted by a four-parameter logistic function to yield IC50 values:
Compounds were assayed as inhibitors of human FASN using the above-described FASN Scintillation Proximity Flashplate Assay (IC50; nM) or FASN NADPH Consumption Assay (*) (IC50; nM). The corresponding activity of the isolated compound is also provided along with the measured mass (ES^+).

SMILES	IC50
COc1ccc(N(C(=O)n2nnn(-c3c(F)cccc3N3CCOCC3)c2=O)C2CCCCC2)cc1C(=O)O	15 to 100 nM
O=C(N1CCCc2cccc(F)c21)n1nnn(-c2c(F)cccc2F)c1=O	< 15 nM
CCOC(=O)c1cc(C)n(-c2ccc(N(C(=O)n3nnn(-c4c(F)cccc4F)c3=O)C3CCCCC3)cc2C(=O)OCc2ccccc2)n1	< 15 nM
O=C(O)c1cc(N(C(=O)n2nnn(-c3c(F)cccc3F)c2=O)C2CCCCC2)cc2c1OCC2	< 15 nM
COc1ccc(N(C(=O)n2nnn(-c3ccccc3OC)c2=O)C(C)C)cc1C(=O)O	200 to 5000 nM
COc1cccc(F)c1-n1nnn(C(=O)N(c2ccc(OCCc3ccccc3)c(C(=O)O)c2)C(C)C)c1=O	15 to 100 nM
CCOC(=O)N1CCN(c2ccc(N(C(=O)n3nnn(-c4c(F)cccc4F)c3=O)C3CCCCC3)cc2C(=O)O)CC1	< 15 nM
COc1ccc(N(C(=O)n2nnn(-c3ccccc3OC)c2=O)C(C)C)cc1C(=O)OCc1ccccc1	< 15 nM
COc1ccc(N(C(=O)n2nnn(-c3c(F)cccc3OC)c2=O)C2CCCC2)cc1C(=O)O	< 15 nM
CCN(C(=O)n1nnn(-c2c(Cl)cccc2Cl)c1=O)c1ccc(Cl)c(C(=O)OCc2ccc(OC)cc2)c1	< 15 nM
CC(C)N(C(=O)n1nnn(-c2c(F)cccc2F)c1=O)c1cc(C(=O)O)ccc1Oc1ccccc1	< 15 nM
CCN(C(=O)n1nnn(-c2c(Cl)cccc2Cl)c1=O)c1ccc(C(=O)O)cc1Cl	< 15 nM
COc1cc(OC)c(N(C(=O)n2nnn(-c3c(F)cccc3F)c2=O)C(C)C)cc1C(=O)O	15 to 100 nM
COc1cccc(F)c1-n1nnn(C(=O)N(CC(C)(C)C)c2cccc(C(=O)OCc3ccccc3)c2)c1=O	15 to 100 nM
CCN(C(=O)n1nnn(-c2c(F)cccc2OC)c1=O)c1cc(C(=O)O)ccc1OCCc1ccccc1	< 15 nM
CS(=O)(=O)N1CCN(c2ccc(N(C(=O)n3nnn(-c4c(F)cccc4F)c3=O)C3CCCCC3)cc2C(=O)O)CC1	< 15 nM
CCN(C(=O)n1nnn(-c2ccccc2OC)c1=O)c1ccc(OC)c(C(=O)OCc2ccccc2)c1	< 15 nM
O=C(O)c1ccc(F)c(N(C(=O)n2nnn(-c3c(F)cccc3F)c2=O)C2CCCC2)c1	< 15 nM
CCN(C(=O)n1nnn(-c2c(Cl)cccc2Cl)c1=O)c1ccc(C(=O)O)c(Cl)c1	< 15 nM
CC(C)(C)OC(=O)N1CCN(c2ccc(N(C(=O)n3nnn(-c4c(F)cccc4F)c3=O)C3CCCCC3)cc2C(=O)OCc2ccccc2)CC1	< 15 nM
COc1ccc(N(C(=O)n2nnn(-c3c(F)cccc3C(=O)N3CCCCC3)c2=O)C(C)C)cc1C(=O)O	15 to 100 nM
O=C(O)c1cc(N(C(=O)n2nnn(-c3c(F)cccc3F)c2=O)C2CCCCC2)ccc1N1CCOCC1	15 to 100 nM

SMILES	IC50
CCN(C(=O)n1nnn(-c2ccccc2OC)c1=O)c1cc(C(=O)O)ccc1OCCc1ccccc1	< 15 nM
COc1ccc(C(=O)O)cc1N(C(=O)n1nnn(-c2c(F)cccc2F)c1=O)C(C)C	< 15 nM
COc1ccc(C(=O)OCc2ccccc2)cc1N(CCCc1ccccc1)C(=O)n1nnn(-c2c(F)cccc2F)c1=O	< 15 nM
COc1ccc(N(C(=O)n2nnn(-c3c(F)cccc3C(=O)N(C)C)c2=O)C(C)C)cc1C(=O)OCc1ccccc1	< 15 nM
COCCOc1ccc(N(C(=O)n2nnn(-c3c(F)cccc3F)c2=O)C2CCCCC2)cc1C(=O)O	< 15 nM
COc1cccc(F)c1-n1nnn(C(=O)N(c2cccc(F)c2)C(C)(C)C)c1=O	200 to 5000 nM
COc1ccc(N(C(=O)n2nnn(-c3c(F)cccc3C(=O)N3CCOCC3)c2=O)C(C)C)cc1C(=O)O	200 to 5000 nM
CN(C)N(C(=O)n1nnn(-c2c(Cl)cccc2Cl)c1=O)C1=CCCC1	15 to 100 nM
O=C(O)c1ccc(N(C(=O)n2nnn(-c3c(F)cccc3F)c2=O)C2CCCCC2)cn1	< 15 nM
COc1ccc(N(C(=O)n2nnn(-c3c(F)cccc3OC)c2=O)C(C)C)cc1C(=O)O	15 to 100 nM
CC(C)N(C(=O)n1nnn(-c2c(F)cccc2F)c1=O)c1ccc(C(=O)OCc2ccccc2)cc1F	< 15 nM
COc1ccc(N(C(=O)n2nnn(-c3c(F)cccc3C(=O)N3CCOCC3)c2=O)C(C)C)cc1C(=O)OCc1ccccc1	< 15 nM
CC(C)N(C(=O)n1nnn(-c2c(F)cccc2F)c1=O)c1cccc(C(=O)O)c1	15 to 100 nM
COc1ccc(N(C(=O)n2nnn(-c3c(F)cccc3F)c2=O)C2CCCCC2)c(OC)c1C(=O)O	15 to 100 nM
COc1ccc(N(C(=O)n2nnn(-c3cccc4nc[nH]c34)c2=O)C2CCCCC2)cc1C(=O)O	100 to 200 nM
COC(=O)c1cc(N(C(=O)n2nnn(-c3c(F)cccc3F)c2=O)C2CCCCC2)ccc1OC	< 15 nM
CN(C)N(C(=O)n1nnn(-c2ccccc2Cl)c1=O)C1CCCC1	200 to 5000 nM
CCC(C)N(C(=O)n1nnn(-c2c(F)cccc2OC)c1=O)c1cccc(C(=O)OCc2ccccc2)c1 (stereo not shown)	< 15 nM
CN(C)N(C(=O)n1nnn(-c2ccccc2Cl)c1=O)C1=CCCC1	15 to 100 nM
COCCOCOc1ccc(N(C(=O)n2nnn(-c3c(F)cccc3F)c2=O)C2CCCCC2)cc1C(=O)OCc1ccccc1	< 15 nM
CCN(C(=O)n1nnn(-c2c(F)cccc2F)c1=O)c1ccccc1Oc1ccccc1	< 15 nM
O=C(O)c1cc(N(C(=O)n2nnn(-c3c(F)cccc3F)c2=O)C2CCCCC2)ccc1O	< 15 nM

SMILES	IC50
CN(C)N(C(=O)n1nnn(-c2ccccc2F)c1=O)C1=CCCC1	100 to 200 nM
CN(C)N(C(=O)n1nnn(-c2ccccc2Cl)c1=O)/C1=C/CCCCCC1	200 to 5000 nM
COc1ccc(N(C(=O)n2nnn(-c3c(F)cccc3F)c2=O)C(C)C)cc1C(=O)O	< 15 nM
CCN(C(=O)n1nnn(-c2ccccc2Cl)c1=O)C1CCCC1	200 to 5000 nM
CN(Cc1cccc2ccccc12)C(=O)n1nnn(-c2c(F)cccc2F)c1=O	100 to 200 nM
COc1cc(N(C(=O)n2nnn(-c3c(F)cccc3F)c2=O)C(C)C)ccc1C(=O)O	< 15 nM
CCN(C(=O)n1nnn(-c2c(F)cccc2OC)c1=O)c1cc(Oc2ccc(C(=O)O)cc2)ccc1C	15 to 100 nM
CCN(C(=O)n1nnn(-c2c(F)cccc2F)c1=O)c1ccc(N)cc1F	< 15 nM
COCCOc1cccc(F)c1-n1nnn(C(=O)N(c2ccc(OC)c(C(=O)O)c2)C2CCCCC2)c1=O	< 15 nM
COc1ccc(N(C(=O)n2nnn(-c3c(F)cccc3OC)c2=O)C2CCCC2)cc1C(=O)OCc1ccccc1	< 15 nM
CC(C)N(C(=O)n1nnn(-c2c(F)cccc2F)c1=O)c1ccc(NS(C)(=O)=O)c(C(=O)O)c1	< 15 nM
O=C(OCc1ccccc1)c1cc(N(C(=O)n2nnn(-c3c(F)cccc3F)c2=O)C2CCCCC2)ccc1NCc1ccccc1	< 15 nM
O=C(O)[C@@H]1CCCN1c1ccc(N(C(=O)n2nnn(-c3c(F)cccc3F)c2=O)C2CCCCC2)cc1	< 15 nM
COc1cc(OC)c(N(C(=O)n2nnn(-c3c(F)cccc3F)c2=O)C2CCCCC2)cc1C(=O)O	< 15 nM
COc1ccc(C(=O)O)cc1N(C(=O)n1nnn(-c2c(F)cccc2OC)c1=O)C1CCCCC1	< 15 nM
COc1ccc(N(C(=O)n2nnn(-c3c(F)cccc3F)c2=O)C2CCCCC2)cc1C(=O)N(C)C	< 15 nM
COc1ccc(N(C(=O)n2nnn(-c3c(F)cccc3F)c2=O)C2CCCCC2)cc1C(N)=O	< 15 nM
CCN(C(=O)n1nnn(-c2c(F)cccc2F)c1=O)c1ccc(OC)c(C(=O)O)c1	15 to 100 nM
COc1ccc(N(C(=O)n2nnn(-c3c(F)cccc3OC)c2=O)C2CCCCC2)cc1C(=O)O	< 15 nM
CCNC(=O)N1CCN(c2ccc(N(C(=O)n3nnn(-c4c(F)cccc4F)c3=O)C3CCCCC3)cc2C(=O)O)CC1	< 15 nM
